Assay results taken from ChEMBL document CHEMBL3124778, “Structure-based design of new dihydrofolate reductase antibacterial agents: 7-(benzimidazol-1-yl)-2,4-diaminoquinazolines” (J Med Chem, 2014).
≈ marks a conversion by molar mass, not a printed value.

Columns and labels:
[1] = test system: Streptococcus pneumoniae; experiment: Antibacterial activity against Streptococcus pneumoniae after 18 to 24 hrs by alamar Blue assay; type: functional
[2] = test system: Streptococcus pneumoniae; experiment: Antibacterial activity against Streptococcus pneumoniae ATCC BAA-255 after 18 to 24 hrs by alamar Blue assay; type: functional
[3] = test system: Streptococcus pneumoniae; experiment: Antibacterial activity against Streptococcus pneumoniae ATCC 700904 after 18 to 24 hrs by alamar Blue assay; type: functional
[4] = test system: Streptococcus pneumoniae; experiment: Antibacterial activity against Streptococcus pneumoniae ATCC 700676 after 18 to 24 hrs by alamar Blue assay; type: functional
[5] = test system: Streptococcus pneumoniae; experiment: Antibacterial activity against Streptococcus pneumoniae ATCC 700677 after 18 to 24 hrs by alamar Blue assay; type: functional
[6] = test system: Streptococcus pneumoniae; experiment: Antibacterial activity against Streptococcus pneumoniae ATCC 700675 after 18 to 24 hrs by alamar Blue assay; type: functional
[7] = test system: Streptococcus pneumoniae; experiment: Antibacterial activity against Streptococcus pneumoniae ATCC 51916 after 18 to 24 hrs by alamar Blue assay; type: functional
[8] = test system: Streptococcus pneumoniae; experiment: Antibacterial activity against Streptococcus pneumoniae ATCC 700671 after 18 to 24 hrs by alamar Blue assay; type: functional
[9] = test system: Streptococcus pneumoniae; experiment: Antibacterial activity against Streptococcus pneumoniae ATCC 700669 after 18 to 24 hrs by alamar Blue assay; type: functional
[10] = test system: Streptococcus pneumoniae; experiment: Antibacterial activity against Streptococcus pneumoniae ATCC 700674 after 18 to 24 hrs by alamar Blue assay; type: functional
[11] = test system: Streptococcus pneumoniae; experiment: Antibacterial activity against Streptococcus pneumoniae ATCC 49619 after 18 to 24 hrs by alamar Blue assay; type: functional
[12] = test system: Staphylococcus aureus; experiment: Antibacterial activity against TMP-resistant Staphylococcus aureus expressing DHFR F99Y mutant after 18 to 24 hrs by alamar Blue assay; type: functional
[13] = test system: Staphylococcus aureus; experiment: Antibacterial activity against Staphylococcus aureus ATCC 13709 after 18 to 24 hrs by alamar Blue assay; type: functional
[14] = Selectivity ratio of Ki for human DHFR to Ki for Staphylococcus aureus DHFR
[15] = test system: Staphylococcus aureus; experiment: Antibacterial activity against Staphylococcus aureus ATCC 13709 after 18 to 24 hrs by alamar Blue assay in presence of 20% heat inactivated mouse serum; type: functional
[16] = biological target: T1, Dihydrofolate reductase (Homo sapiens, UniProt P00374); experiment: Inhibition of human DHFR using dihydrofolate as substrate preincubated for 10 mins followed by substrate addition by spectrophotometric analysis in presence of NADPH
T1 sequence (P00374 whole entry): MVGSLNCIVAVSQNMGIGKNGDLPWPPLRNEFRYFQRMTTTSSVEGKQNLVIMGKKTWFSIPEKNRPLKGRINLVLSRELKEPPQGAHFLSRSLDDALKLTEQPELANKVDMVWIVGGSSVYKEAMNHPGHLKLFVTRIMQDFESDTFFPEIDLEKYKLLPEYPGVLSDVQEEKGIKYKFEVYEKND

[17] = biological target: Dihydrofolate reductase (Staphylococcus aureus, UniProt P0A017); experiment: Inhibition of Staphylococcus aureus DHFR using dihydrofolate as substrate preincubated for 10 mins followed by substrate addition by spectrophotometric analysis in presence of NADPH
[18] = Apparent volume of distribution in BALB/c mouse at 5 mg/kg, iv; type: ADME, organism-based; set-up: dose 5 mg/kg, route intravenous; settings: in vivo, read-out: Vz
[19] = Total clearance in BALB/c mouse at 5 mg/kg, iv; type: ADME, organism-based; set-up: dose 5 mg/kg, route intravenous; settings: in vivo
[20] = Terminal half life in BALB/c mouse at 5 mg/kg, iv; type: ADME, organism-based; set-up: dose 5 mg/kg, route intravenous; settings: in vivo, read-out: beta t1/2 (converted)
[21] = AUClast in BALB/c mouse at 5 mg/kg, iv; type: ADME, organism-based; set-up: dose 5 mg/kg, route intravenous, time 0 - last; settings: plasma
[22] = Plasma concentration in BALB/c mouse at 5 mg/kg, iv measured at 2 mins by LC-MS/MS analysis; type: ADME, organism-based; set-up: dose 5 mg/kg, route intravenous
[23] = test system: Staphylococcus aureus; experiment: Ratio of iclaprim MIC to compound MIC for TMP-resistant Staphylococcus aureus expressing DHFR F99Y mutant; type: functional
[24] = test system: Staphylococcus aureus; experiment: animal or person; settings: ATCC 13709, in Mus musculus, iv, 24 h, read-out: PD50
Description: Antibacterial activity against Staphylococcus aureus ATCC 13709 infected in iv dosed BALB/c mouse septicemia model assessed as protection from lethal infection after 24 hrs

Sequence of Dihydrofolate reductase (Staphylococcus aureus, UniProt P0A017) (P0A017 whole entry): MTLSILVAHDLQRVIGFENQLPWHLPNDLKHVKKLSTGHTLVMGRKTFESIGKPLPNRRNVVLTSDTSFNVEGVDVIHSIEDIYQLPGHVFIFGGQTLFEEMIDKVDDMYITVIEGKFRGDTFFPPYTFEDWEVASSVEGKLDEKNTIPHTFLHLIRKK

Row | SMILES | MIC [12] [mg/L] | MIC [13] [mg/L] | Ratio Ki [14] | MIC [15] [mg/L] | Ki [16] [nM] | Ki [17] [nM] | further results
1 | Cc1cc2nc(-c3nccs3)n(-c3cc4nc(N)nc(N)c4cc3Cl)c2cc1C | 0.25 (≈ 0.593 µM) | 0.125 (≈ 0.296 µM) | 690 | – | – | – | MIC50 [1]: ≤ 0.5 mg/L; MIC90 [1]: 4 mg/L (≈ 9.48 µM); MIC [2]: ≤ 0.5 mg/L; MIC [3]: 1 mg/L (≈ 2.37 µM); MIC [4]: ≤ 0.5 mg/L; MIC [5]: ≤ 0.5 mg/L; MIC [6]: ≤ 0.5 mg/L; MIC [7]: ≤ 0.5 mg/L; MIC [8]: 4 mg/L (≈ 9.48 µM); MIC [9]: 4 mg/L (≈ 9.48 µM); MIC [10]: 4 mg/L (≈ 9.48 µM); MIC [11]: 0.125 mg/L (≈ 0.296 µM)
2 | COc1cc2nc(-c3nccs3)n(-c3cc4nc(N)nc(N)c4cc3C)c2cc1OC | 8 (≈ 18.5 µM) | 0.5 (≈ 1.15 µM) | 8950 | 0.5 | – | – | –
3 | Cc1cc2nc(-c3cccnc3)n(-c3ccc4c(N)nc(N)nc4c3)c2cc1C | 32 (≈ 83.9 µM) | 0.5 (≈ 1.31 µM) | > 1250 | 2 | 1560 | 0.26 | –
4 | Cc1cc2nc(-c3ccsc3)n(-c3ccc4c(N)nc(N)nc4c3)c2cc1C | 2 (≈ 5.17 µM) | 0.03 (≈ 0.0776 µM) | – | – | – | – | –
5 | Cc1cc2nc(C3CC3)n(-c3ccc4c(N)nc(N)nc4c3)c2cc1C | 8 (≈ 23.2 µM) | 0.5 (≈ 1.45 µM) | – | – | – | – | –
6 | Cc1cc2nc(-c3cccn3C)n(-c3ccc4c(N)nc(N)nc4c3)c2cc1C | 64 (≈ 167 µM) | 8 (≈ 20.9 µM) | – | 32 | > 5000 | 4 | –
7 | Cc1cc2nc(-c3cccs3)n(-c3ccc4c(N)nc(N)nc4c3)c2cc1C | 0.25 (≈ 0.647 µM) | 0.015 (≈ 0.0388 µM) | – | – | – | – | MIC50 [1]: 1 mg/L (≈ 2.59 µM); MIC90 [1]: 16 mg/L (≈ 41.4 µM); MIC [2]: ≤ 0.125 mg/L; MIC [3]: 4 mg/L (≈ 10.3 µM); MIC [4]: 0.25 mg/L (≈ 0.647 µM); MIC [5]: 0.25 mg/L (≈ 0.647 µM); MIC [6]: 1 mg/L (≈ 2.59 µM); MIC [7]: 4 mg/L (≈ 10.3 µM); MIC [8]: 32 mg/L (≈ 82.8 µM); MIC [9]: 4 mg/L (≈ 10.3 µM); MIC [10]: 16 mg/L (≈ 41.4 µM); MIC [11]: ≤ 0.5 mg/L
8 | Cc1cc2nc(-c3nccs3)n(-c3ccc4c(N)nc(N)nc4c3)c2cc1C | 0.25 (≈ 0.645 µM) | 0.015 (≈ 0.0387 µM) | – | 0.125 | – | – | MIC50 [1]: ≤ 0.5 mg/L; MIC90 [1]: 8 mg/L (≈ 20.6 µM); Vd [18]: 4.4 L/kg; clearance [19]: 2.1 L/h/kg; half-life [20]: 1.4 h; AUC(0-t) [21]: 2.4 µg·h/mL; concentration at 2 min [22]: 12.7 µg/mL; MIC [2]: ≤ 0.5 mg/L; MIC [3]: 4 mg/L (≈ 10.3 µM); MIC [4]: ≤ 0.5 mg/L; MIC [5]: ≤ 0.5 mg/L; MIC [6]: ≤ 0.5 mg/L; MIC [7]: ≤ 0.5 mg/L; MIC [8]: 32 mg/L (≈ 82.6 µM); MIC [9]: 8 mg/L (≈ 20.6 µM); MIC [10]: 8 mg/L (≈ 20.6 µM); MIC [11]: 0.25 mg/L (≈ 0.645 µM); Ratio [23]: 8; ED50 [24]: 2 mg/kg
9 | Cc1cc2nc(C3CCCO3)n(-c3ccc4c(N)nc(N)nc4c3)c2cc1C (stereo unspecified) | 16 (≈ 42.7 µM) | 0.5 (≈ 1.34 µM) | – | > 16 | 749 | 0.2 | –
10 | COc1cc2nc(-c3nccs3)n(-c3cc4nc(N)nc(N)c4cc3Cl)c2cc1OC | 2 (≈ 4.41 µM) | 0.125 (≈ 0.275 µM) | 29000 | – | – | – | –
11 | Cc1cc2nc(-c3ccoc3)n(-c3ccc4c(N)nc(N)nc4c3)c2cc1C | 2 (≈ 5.4 µM) | 0.06 (≈ 0.162 µM) | 90000 | 1 | 723 | 0.008 | –
12 | COc1ccc(-c2nc3cc(C)c(C)cc3n2-c2ccc3c(N)nc(N)nc3c2)cc1 | > 64 | 2 (≈ 4.87 µM) | – | 8 | 2300 | 0.34 | –
13 | COc1cc2nc(-c3nccs3)n(-c3ccc4c(N)nc(N)nc4c3)c2cc1OC | 16 (≈ 38.1 µM) | – | 5300 | – | – | – | –
14 | Cc1cc2ncn(-c3ccc4c(N)nc(N)nc4c3)c2cc1C | > 64 | 2 (≈ 6.57 µM) | – | 32 | 1610 | 1.7 | –
